Source: US20240109917A1 (ACTELION PHARMACEUTICALS LTD, priority 2020, published 2024)
pIC50: −log10 of the molar value.

biological target: VEGFR2, unphosphorylated (Homo sapiens (Human), UniProt P35968); assay: VEGFR ADP GLO Assay; assay type: biochemical
Sequence (P35968 20-1356): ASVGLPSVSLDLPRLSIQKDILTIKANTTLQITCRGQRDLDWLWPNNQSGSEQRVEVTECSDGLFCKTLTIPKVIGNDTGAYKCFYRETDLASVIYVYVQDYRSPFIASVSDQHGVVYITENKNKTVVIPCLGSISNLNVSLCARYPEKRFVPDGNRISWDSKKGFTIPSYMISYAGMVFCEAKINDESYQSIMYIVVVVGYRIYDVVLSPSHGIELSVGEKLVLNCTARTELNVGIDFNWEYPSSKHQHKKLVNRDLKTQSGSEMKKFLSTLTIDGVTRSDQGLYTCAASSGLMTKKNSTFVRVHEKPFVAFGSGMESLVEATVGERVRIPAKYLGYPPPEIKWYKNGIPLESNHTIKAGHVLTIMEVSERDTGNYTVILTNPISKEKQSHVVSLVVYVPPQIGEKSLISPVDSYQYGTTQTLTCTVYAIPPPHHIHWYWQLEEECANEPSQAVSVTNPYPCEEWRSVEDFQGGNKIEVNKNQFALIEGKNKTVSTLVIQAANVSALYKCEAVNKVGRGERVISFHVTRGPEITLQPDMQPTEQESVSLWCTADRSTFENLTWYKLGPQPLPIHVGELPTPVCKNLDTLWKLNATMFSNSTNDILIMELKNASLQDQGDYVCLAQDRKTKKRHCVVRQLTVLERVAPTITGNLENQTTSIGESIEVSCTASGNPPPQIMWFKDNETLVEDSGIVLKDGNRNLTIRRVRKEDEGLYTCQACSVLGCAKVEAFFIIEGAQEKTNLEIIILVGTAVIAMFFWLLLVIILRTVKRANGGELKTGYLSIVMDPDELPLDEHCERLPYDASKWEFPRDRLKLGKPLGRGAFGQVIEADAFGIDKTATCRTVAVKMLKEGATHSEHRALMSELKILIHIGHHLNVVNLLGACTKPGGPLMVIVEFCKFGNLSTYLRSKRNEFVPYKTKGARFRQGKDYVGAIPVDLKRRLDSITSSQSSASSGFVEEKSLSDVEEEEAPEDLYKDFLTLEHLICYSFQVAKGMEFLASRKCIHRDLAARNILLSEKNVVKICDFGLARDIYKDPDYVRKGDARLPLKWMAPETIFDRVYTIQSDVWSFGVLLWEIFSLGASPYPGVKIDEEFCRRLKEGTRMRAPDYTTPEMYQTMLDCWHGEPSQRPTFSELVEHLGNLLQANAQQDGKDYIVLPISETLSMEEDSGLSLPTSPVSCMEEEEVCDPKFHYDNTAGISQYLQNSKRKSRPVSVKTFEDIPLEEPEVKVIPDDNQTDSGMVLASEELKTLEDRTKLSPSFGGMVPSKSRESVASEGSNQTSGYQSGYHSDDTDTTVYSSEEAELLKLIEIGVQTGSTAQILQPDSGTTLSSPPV

Row | SMILES | pIC50
1 | Cc1ncc(NC(=O)CN2CCC3(CCOC3)C2)cc1NC(=O)c1cnn2cc(-c3cnn(C)c3)sc12 (stereo not shown) [Example 19, N-(5-(2-(2-oxa-7-azaspiro[4.4]nonan-7-yl)acetamido)-2-methylpyridin-3-yl)-2-(1-methyl-1H-pyrazol-4-yl)pyrazolo[5,1-b]thiazole-7-carboxamide] | < 5.12
2 | Cc1ncc(NC(=O)CN2CCCC23COC3)cc1NC(=O)c1cnn2cc(-c3cnn(C)c3)sc12 [Example 20, N-(5-(2-(2-oxa-5-azaspiro[3.4]octan-5-yl)acetamido)-2-methyl-pyridin-3-yl)-2-(1-methyl-1H-pyrazol-4-yl)pyrazolo[5,1-b]thiazole-7-carboxamide] | < 5.12
3 | Cc1ncc(NC(=O)CN2CCC3(CCCO3)C2)cc1NC(=O)c1cnn2cc(-c3cnn(C)c3)sc12 (stereo not shown) [Example 21, N-(5-(2-(1-oxa-7-azaspiro[4.4]nonan-7-yl)acetamido)-2-methylpyridin-3-yl)-2-(1-methyl-1H-pyrazol-4-yl)pyrazolo[5,1-b]thiazole-7-carboxamide] | < 5.12
4 | Cc1ncc(NC(=O)CN2CC(C)(C)C2)cc1NC(=O)c1cnn2cc(-c3cnn(C)c3)sc12 [Example 22, N-(5-(2-(3,3-dimethylazetidin-1-yl)acetamido)-2-methylpyridin-3-yl)-2-(1-methyl-1H-pyrazol-4-yl)pyrazolo[5,1-b]thiazole-7-carboxamide] | < 5.12
5 | Cc1ncc(NC(=O)CN2CCc3ccncc3C2)cc1NC(=O)c1cnn2cc(-c3cnn(C)c3)sc12 [Example 23, N-(5-(2-(3,4-dihydro-2,7-naphthyridin-2 (1H)-yl)acetamido)-2-methylpyridin-3-yl)-2-(1-methyl-1H-pyrazol-4-yl)pyrazolo[5,1-b]thiazole-7-carboxamide] | < 5.12
6 | Cc1ncc(NC(=O)CN2CCCC3(COC3)C2)cc1NC(=O)c1cnn2cc(-c3cnn(C)c3)sc12 [Example 24, N-(5-(2-(2-oxa-6-azaspiro[3.5]nonan-6-yl)acetamido)-2-methylpyridin-3-yl)-2-(1-methyl-1H-pyrazol-4-yl)pyrazolo[5,1-b]thiazole-7-carboxamide] | < 5.12
7 | Cc1ncc(NC(=O)CN2CCCCC23COC3)cc1NC(=O)c1cnn2cc(-c3cnn(C)c3)sc12 [Example 25, N-(5-(2-(2-oxa-5-azaspiro[3.5]nonan-5-yl)acetamido)-2-methylpyridin-3-yl)-2-(1-methyl-1H-pyrazol-4-yl)pyrazolo[5,1-b]thiazole-7-carboxamide] | < 5.12
8 | COc1ncccc1-c1cn2ncc(C(=O)Nc3cc(NC(=O)OCCN4CCCC4(C)C)cnc3C)c2s1 [Example 254, 2-(2,2-dimethylpyrrolidin-1-yl)ethyl (5-(2-(2-methoxypyridin-3-yl)pyrazolo[5,1-b]thiazole-7-carboxamido)-6-methylpyridin-3-yl)carbamate] | < 5.12
9 | COc1ncccc1-c1cn2ncc(C(=O)Nc3cc(NC(=O)OCC(C)N4CCCC4)cnc3C)c2s1 (stereo not shown) [Example 255, 2-(pyrrolidin-1-yl)propyl (5-(2-(2-methoxypyridin-3-yl)pyrazolo[5,1-b]thiazole-7-carboxamido)-6-methylpyridin-3-yl)carbamate] | < 5.12
10 | Cc1ncc(NC(=O)OC[C@@H]2CCCN2C)cc1NC(=O)c1cnn2cc(-c3cccnc3O)sc12 [Example 256, (S)-(1-methylpyrrolidin-2-yl)methyl (5-(2-(2-hydroxypyridin-3-yl)pyrazolo[5,1-b]thiazole-7-carboxamido)-6-methylpyridin-3-yl)carbamate] | < 5.12
11 | Cc1ncc(NC(=O)OC[C@@H]2CCCN2C)cc1NC(=O)c1cnn2cc(-c3cccc4c3cnn4C)sc12 [Example 257, (S)-(1-methylpyrrolidin-2-yl)methyl (6-methyl-5-(2-(1-methyl-1H-indazol-4-yl)pyrazolo[5,1-b]thiazole-7-carboxamido)pyridin-3-yl)carbamate] | < 5.60
12 | Cc1ncc(NC(=O)OC[C@@H]2CCCN2C)cc1NC(=O)c1cnn2cc(-c3cc[nH]c3)sc12 [Example 258, (S)-(1-methylpyrrolidin-2-yl)methyl (5-(2-(1H-pyrrol-3-yl)pyrazolo[5,1-b]thiazole-7-carboxamido)-6-methylpyridin-3-yl)carbamate] | < 5.12
13 | Cc1ncc(NC(=O)CN2CCCC2(C)C)cc1NC(=O)c1cnn2cc(-n3ncc4cccnc43)sc12 [Example 259, N-(5-(2-(2,2-dimethylpyrrolidin-1-yl)acetamido)-2-methylpyridin-3-yl)-2-(1H-pyrazolo[3,4-b]pyridin-1-yl)pyrazolo[5,1-b]thiazole-7-carboxamide] | < 5.12
14 | Cc1ncc(NC(=O)CCN2CCCC2(C)C)cc1NC(=O)c1cnn2cc(-n3ncc4cccnc43)sc12 [Example 260, N-(5-(3-(2,2-dimethylpyrrolidin-1-yl)propanamido)-2-methylpyridin-3-yl)-2-(1H-pyrazolo[3,4-b]pyridin-1-yl)pyrazolo[5,1-b]thiazole-7-carboxamide] | < 5.12
15 | COCCn1cc(-c2cn3ncc(C(=O)Nc4cc(NC(=O)CN5CC(C)(C)C5)cnc4C)c3s2)cn1 [Example 261, N-(5-(2-(3,3-dimethylazetidin-1-yl)acetamido)-2-methylpyridin-3-yl)-2-(1-(2-methoxyethyl)-1H-pyrazol-4-yl)pyrazolo[5,1-b]thiazole-7-carboxamide] | < 5.12
16 | Cc1ncc(NC(=O)CN2CC(C)(C)C2)cc1NC(=O)c1cnn2cc(-c3cnn(C4CS(=O)(=O)C4)c3)sc12 [Example 262, N-(5-(2-(3,3-dimethylazetidin-1-yl)acetamido)-2-methylpyridin-3-yl)-2-(1-(1,1-dioxidothietan-3-yl)-1H-pyrazol-4-yl)pyrazolo[5,1-b]thiazole-7-carboxamide] | < 5.12
17 | Cc1ncc(NC(=O)CN2CC(C)(C)C2)cc1NC(=O)c1cnn2cc(-c3cnn(CC4COC4)c3)sc12 [Example 263, N-(5-(2-(3,3-dimethylazetidin-1-yl)acetamido)-2-methylpyridin-3-yl)-2-(1-(oxetan-3-ylmethyl)-1H-pyrazol-4-yl)pyrazolo[5,1-b]thiazole-7-carboxamide] | < 5.12
18 | Cc1ncc(NC(=O)CN2CC(C)(C)C2)cc1NC(=O)c1cnn2cc(-c3cnn(C4COC4)c3)sc12 [Example 264, N-(5-(2-(3,3-dimethylazetidin-1-yl)acetamido)-2-methylpyridin-3-yl)-2-(1-(oxetan-3-yl)-1H-pyrazol-4-yl)pyrazolo[5,1-b]thiazole-7-carboxamide] | < 5.12
19 | Cc1ncc(NC(=O)CN2CC(C)(C)C2)cc1NC(=O)c1cnn2cc(-c3cnn(CS(C)(=O)=O)c3)sc12 [Example 265, N-(5-(2-(3,3-dimethylazetidin-1-yl)acetamido)-2-methylpyridin-3-yl)-2-(1-((methylsulfonyl)methyl)-1H-pyrazol-4-yl)pyrazolo[5,1-b]thiazole-7-carboxamide] | < 5.12
20 | Cc1ncc(NC(=O)CN2CC(C)(C)C2)cc1NC(=O)c1cnn2cc(-c3cnn(CC#N)c3)sc12 [Example 266, 2-(1-(cyanomethyl)-1H-pyrazol-4-yl)-N-(5-(2-(3,3-dimethylazetidin-1-yl)acetamido)-2-methylpyridin-3-yl)pyrazolo[5,1-b]thiazole-7-carboxamide] | < 5.12
21 | Cc1ncc(NC(=O)CN2CC(C)(C)C2)cc1NC(=O)c1cnn2cc(-c3cnn(CC(N)=O)c3)sc12 [Example 267, 2-(1-(2-amino-2-oxoethyl)-1H-pyrazol-4-yl)-N-(5-(2-(3,3-dimethylazetidin-1-yl)acetamido)-2-methylpyridin-3-yl)pyrazolo[5,1-b]thiazole-7-carboxamide] | < 5.12
22 | Cc1ncc(NC(=O)CN2CC(C)(C)C2)cc1NC(=O)c1cnn2cc(-c3cnn(CC(F)(F)F)c3)sc12 [Example 268, N-(5-(2-(3,3-dimethylazetidin-1-yl)acetamido)-2-methylpyridin-3-yl)-2-(1-(2,2,2-trifluoroethyl)-1H-pyrazol-4-yl)pyrazolo[5,1-b]thiazole-7-carboxamide] | < 5.12
23 | Cc1ncc(NC(=O)CN2CC(C)(C)C2)cc1NC(=O)c1cnn2cc(-c3cnn(C(F)(F)F)c3)sc12 [Example 269, N-(5-(2-(3,3-dimethylazetidin-1-yl)acetamido)-2-methylpyridin-3-yl)-2-(1-(trifluoromethyl)-1H-pyrazol-4-yl)pyrazolo[5,1-b]thiazole-7-carboxamide] | < 5.12
24 | Cc1ncc(NC(=O)CN2CC(C)(C)C2)cc1NC(=O)c1cnn2cc(-c3cnn(CC4CC4)c3)sc12 [Example 270, 2-(1-(cyclopropylmethyl)-1H-pyrazol-4-yl)-N-(5-(2-(3,3-dimethylazetidin-1-yl)acetamido)-2-methylpyridin-3-yl)pyrazolo[5,1-b]thiazole-7-carboxamide] | < 5.12
25 | Cc1ncc(NC(=O)CN2CC(C)(C)C2)cc1NC(=O)c1cnn2cc(-c3cn[nH]c3)sc12 [Example 271, N-(5-(2-(3,3-dimethylazetidin-1-yl)acetamido)-2-methylpyridin-3-yl)-2-(1H-pyrazol-4-yl)pyrazolo[5,1-b]thiazole-7-carboxamide] | 5.23
26 | Cc1ncc(NC(=O)CN2CC(C)(C)C2)cc1NC(=O)c1cnn2cc(-c3ccc(C4(O)COC4)cc3)sc12 [Example 272, N-(5-(2-(3,3-dimethylazetidin-1-yl)acetamido)-2-methylpyridin-3-yl)-2-(4-(3-hydroxyoxetan-3-yl)phenyl)pyrazolo[5,1-b]thiazole-7-carboxamide] | < 5.12
27 | CC(=O)Nc1cc(-c2cn3ncc(C(=O)Nc4cc(NC(=O)CN5CC(C)(C)C5)cnc4C)c3s2)ccn1 [Example 273, 2-(2-acetamidopyridin-4-yl)-N-(5-(2-(3,3-dimethylazetidin-1-yl)acetamido)-2-methylpyridin-3-yl)pyrazolo[5,1-b]thiazole-7-carboxamide] | < 5.12
28 | CNC(=O)c1cc(-c2cn3ncc(C(=O)Nc4cc(NC(=O)CN5CC(C)(C)C5)cnc4C)c3s2)ccn1 [Example 274, N-(5-(2-(3,3-dimethylazetidin-1-yl)acetamido)-2-methylpyridin-3-yl)-2-(2-(methylcarbamoyl)pyridin-4-yl)pyrazolo[5,1-b]thiazole-7-carboxamide] | < 5.12
